# According to patent US11077210B2, “Near-infrared fluorescent contrast bioimaging agents and methods of use thereof” (Beth Israel Deaconess Medical Center, priority 2013, dated 2021):
# Tests used:
# Format in all cases: in vivo
# CSF = CSF NIR fluorescence imaging (FLARE); conditions: 35 kg female pig, 5 μmol intravenously, 4 hours; Channel 1 (700 nm) or Channel 2 (800 nm)
# Method: (§1) Absorbance and fluorescence emission spectra were measured using fiber optic HR2000 absorbance (200-1100 nm) and USB2000FL fluorescence (350-1000 nm) spectrometers (Ocean Optics, Dunedin, Fla.). Excitation was provided by a 532 nm green laser pointer (Opcom Inc., Xiamen, China) set to 5 mW, a 655 nm red laser pointer (Opcom Inc., Xiamen, China) set to 5 mW, or a 770 nm NIR laser diode light source (Electro Optical Components, Santa Rosa, Calif.) set to 10 mW and coupled through a 300 μm core diameter, NA 0.22 fiber (Fiberguide Industries, Stirling, N.J.). In silico calculations of the partition coefficient (log D at pH 7.4) and surface molecular charge and hydrophobicity were calculated using MarvinSketch 5.2.1 by taking major microspecies at pH 7.4 (ChemAxon, Budapest, Hungary). NIR Fluorescence Imaging System The dual-NIR channel FLARE′ imaging system has been described in detail previously (26-28). […] Color and two independent NIR fluorescence emission images (≈700 nm for Channel 1 and ≈800 nm for Channel 2) were acquired simultaneously with custom software at rates up to 15 Hz over a 15 cm diameter field of view. NIR fluorescence from Channel 1 was pseudo-colored in red and NIR fluorescence from Channel 2 was pseudo-colored in lime green prior to merger with the color video image. […] Animal Models and Intraoperative NIR Fluorescence Imaging […]
# [1] = test system: neuroendocrine tumors (insulinoma); assay: Neuroendocrine tumor NIR fluorescence imaging (FLARE); conditions: 25 g male insulinoma-bearing mouse, 140 nmol intravenously, 1 hour, pancreas imaged; Channel 1 (700 nm) or Channel 2 (800 nm)
# Method: as §1
# Peyer's patches = Peyer's patches NIR fluorescence imaging (FLARE); conditions: 250 g male rat, 100 nmol intravenously, 4 hours; Channel 2 (800 nm)
# Method: as §1
# spinal cartilage = assay: Cartilage NIR fluorescence imaging (FLARE); conditions: 35 kg female pig, 5 μmol intravenously, 4 hours, Channel 1 (700 nm) or Channel 2 (800 nm)
# Method: as §1
# SLN = assay: Sentinel lymph node (SLN) NIR fluorescence imaging (FLARE); conditions: 35 kg female pig, 5 nmol subcutaneously into bowel, 5 min; Channel 1 (700 nm) or Channel 2 (800 nm)
# Method: as §1
# pan lymph nodes = assay: Pan lymph node NIR fluorescence imaging (FLARE); conditions: 250 g male rat, 20 nmol intravenously, 4 hours; Channel 1 (700 nm) or Channel 2 (800 nm)
# Method: as §1
# bone (rib cage) = assay: Bone NIR fluorescence imaging (FLARE); conditions: 35 kg female pig, 5 μmol intravenously, 4 hours, Channel 1 (700 nm) or Channel 2 (800 nm)
# Method: as §1
# gallbladder = assay: Gallbladder NIR fluorescence imaging (FLARE); conditions: 25 g male mouse, 25 nmol intravenously, 4 hours; Channel 1 (700 nm) or Channel 2 (800 nm)
# Method: as §1
# prostate = assay: Prostate NIR fluorescence imaging (FLARE); conditions: 25 g male mouse, 25 nmol intravenously, 4 hours; Channel 1 (700 nm) or Channel 2 (800 nm)
# Method: as §1
# ovaries = assay: Ovary NIR fluorescence imaging (FLARE); conditions: 25 g female mouse, 25 nmol intravenously, 4 hours; Channel 1 (700 nm) or Channel 2 (800 nm)
# Method: as §1
# brain vasculature = assay: Brain vasculature NIR fluorescence imaging (FLARE); conditions: 25 g male mouse, 25 nmol intravenously, 4 hours; Channel 1 (700 nm)
# Method: as §1
smiles,measurement,setting,value
CN1/C(=C/C=C/C=C/C=C/C2=[N+](C)c3ccccc3C2(C)C)C(C)(C)c2ccccc21 [AL20],NIR fluorescence contrast of the CSF,CSF,highlighted with high contrast
same,NIR fluorescence contrast of the tumors,[1],highlighted with high contrast
CC1(C)C(/C=C/C=C/C=C/C=C2/N(CCC[N+](C)(C)C)c3ccccc3C2(C)C)=[N+](CCC[N+](C)(C)C)c2ccccc21 [AL30],NIR fluorescence contrast of the Peyer's patches,Peyer's patches,highlighted with high contrast
CN(C)c1ccc2nc3ccc(=[N+](C)C)cc-3oc2c1 [ESS61],NIR fluorescence contrast of the tumors,[1],highlighted with high contrast
CC1(C)C(/C=C/C2=C(Sc3ccc(CCN)cc3)C(=C/C=C3/N(CCC[N+](C)(C)C)c4ccc(S(=O)(=O)O)cc4C3(C)C)/CCC2)=[N+](CCC[N+](C)(C)C)c2ccc(S(=O)(=O)O)cc21 [LN50],NIR fluorescence contrast of the cartilage,spinal cartilage,highlighted with high contrast
CCN1/C(=C/C=C/C=C/C2=[N+](CC)c3ccc4ccccc4c3C2(C)C)C(C)(C)c2c1ccc1ccccc21 [MHI86],NIR fluorescence contrast of the SLN,SLN,highlighted with high contrast
CC1(C)C(/C=C/C2=C(Oc3ccc(CCC(=O)O)cc3)C(=C/C=C3/N(CCC[N+](C)(C)C)c4ccccc4C3(C)C)/CCC2)=[N+](CCC[N+](C)(C)C)c2ccccc21 [MM25],NIR fluorescence contrast of the SLN,SLN,highlighted with high contrast
same,NIR fluorescence contrast of all lymph nodes,pan lymph nodes,highlighted with high contrast
CC1(C)C(/C=C/C(C/C=C2/N(CCCP(=O)(O)O)c3ccc(S(=O)(=O)[O-])cc3C2(C)C)c2ccc(CCC(=O)O)cc2)=[N+](CCCP(=O)(O)O)c2ccc(S(=O)(=O)O)cc21 (centres unmarked) [P700SO3],NIR fluorescence contrast of the bone,bone (rib cage),highlighted with high contrast
CCN(CC)c1ccc(/C=C/C2=CC(/C=C/c3ccc(N(CC)CC)cc3O)=[O+][B-](F)(F)O2)c(O)c1 [PS62],NIR fluorescence contrast of the gallbladder,gallbladder,highlighted with high contrast
same,NIR fluorescence contrast of the prostate,prostate,highlighted with high contrast
same,NIR fluorescence contrast of the ovaries,ovaries,highlighted with high contrast
C[N+](C)(C)CCCN1/C(=C/C=C/C=C/c2sc3cc(O)ccc3[n+]2CCC[N+](C)(C)C)Sc2cc(O)ccc21 [SP56],NIR fluorescence contrast of the cartilage,spinal cartilage,highlighted with high contrast
CNCCCN1/C(=C/C=C/C=C/c2sc3cc(O)ccc3[n+]2CCCNC)Sc2cc(O)ccc21 [ZK214],NIR fluorescence contrast of the brain vasculature,brain vasculature,highlighted with high contrast
